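Cultured in 96-well plates, cells were exposed to test compound for 48 hours across five concentrations. The concentration for 50% growth inhibition is given as GI50.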 Active and inactive are the calls of the source. Cut-off read from the data, not from the text of the source: active = GI50 up to about 1.1 µM and inactive = higher.
Columns and labels:
Assay in all cases: NCI tumour cell line growth inhibition, 48 h
SF-295 = test system: SF-295
Malme-3M = test system: Malme-3M
M14 = test system: M14
IGROV-1 = test system: IGROV-1
ACHN = test system: ACHN
SR = test system: SR
SK-OV-3 = test system: SK-OV-3
SNB-19 = test system: SNB-19
OVCAR-8 = test system: OVCAR-8
HOP-92 = test system: HOP-92
786-0 = test system: 786-0
LOX IMVI = test system: LOX IMVI
OVCAR-5 = test system: OVCAR-5
SW-620 = test system: SW-620
HT-29 = test system: HT-29
HCT-15 = test system: HCT-15
A498 = test system: A498
MDA-MB-231 = test system: MDA-MB-231
TK-10 = test system: TK-10
SN12C = test system: SN12C
COLO 205 = test system: COLO 205
HCT-116 = test system: HCT-116
NCI/ADR-RES = test system: NCI/ADR-RES
K562 = test system: K562
OVCAR-3 = test system: OVCAR-3
SK-MEL-5 = test system: SK-MEL-5
SK-MEL-28 = test system: SK-MEL-28
SF-268 = test system: SF-268
Hs-578T = test system: Hs-578T
U-251 = test system: U-251
UO-31 = test system: UO-31
A549 = test system: A549
MCF7 = test system: MCF7
PC-3 = test system: PC-3
UACC-62 = test system: UACC-62
NCI-H23 = test system: NCI-H23
MDA-N = test system: MDA-N
KM12 = test system: KM12
SK-MEL-2 = test system: SK-MEL-2
SNB-75 = test system: SNB-75
MDA-MB-435 = test system: MDA-MB-435
MOLT-4 = test system: MOLT-4
NCI-H522 = test system: NCI-H522
NCI-H226 = test system: NCI-H226
RPMI-8226 = test system: RPMI-8226
EKVX = test system: EKVX
DU-145 = test system: DU-145
HOP-62 = test system: HOP-62
CCRF-CEM = test system: CCRF-CEM
HL-60 = test system: HL-60
UACC-257 = test system: UACC-257
T47D = test system: T47D
RXF 393 = test system: RXF 393
SF-539 = test system: SF-539
CAKI-1 = test system: CAKI-1
OVCAR-4 = test system: OVCAR-4

Question: `CSC1=N/C(=C\c2ccco2)C(=O)N1CN1CCCCC1` was tested. Which GI50 (SF-295) did it give?
Answer: > 100 µM (inactive)

Question: And the GI50 (Malme-3M)?
Answer: > 100 µM (inactive)

Question: What about the GI50 (M14) of the same compound?
Answer: 85.3 µM (inactive)

Question: What about the GI50 (IGROV-1) of the same compound?
Answer: 89.9 µM (inactive)

Question: What about the GI50 (ACHN) of the same compound?
Answer: 69.5 µM (inactive)

Question: What about the GI50 (SR) of the same compound?
Answer: > 100 µM (inactive)

Question: And the GI50 (SK-OV-3)?
Answer: > 100 µM (inactive)

Question: What about the GI50 (SNB-19) of the same compound?
Answer: 87.3 µM (inactive)

Question: What about the GI50 (OVCAR-8) of the same compound?
Answer: 75.9 µM (inactive)

Question: And the GI50 (HOP-92)?
Answer: 28.4 µM (inactive)

Question: And the GI50 (786-0)?
Answer: 54.6 µM (inactive)

Question: What about the GI50 (LOX IMVI) of the same compound?
Answer: 33.7 µM (inactive)

Question: What about the GI50 (OVCAR-5) of the same compound?
Answer: > 100 µM (inactive)

Question: What about the GI50 (SW-620) of the same compound?
Answer: 36.1 µM (inactive)

Question: And the GI50 (HT-29)?
Answer: 51.6 µM (inactive)

Question: What about the GI50 (HCT-15) of the same compound?
Answer: 38.4 µM

Question: And the GI50 (A498)?
Answer: > 100 µM (inactive)

Question: And the GI50 (MDA-MB-231)?
Answer: > 100 µM (inactive)

Question: And the GI50 (TK-10)?
Answer: > 100 µM (inactive)

Question: And the GI50 (SN12C)?
Answer: 65.3 µM (inactive)

Question: And the GI50 (COLO 205)?
Answer: 38.4 µM (inactive)

Question: And the GI50 (HCT-116)?
Answer: 50.4 µM (inactive)

Question: And the GI50 (NCI/ADR-RES)?
Answer: > 100 µM (inactive)

Question: And the GI50 (K562)?
Answer: 59.6 µM (inactive)

Question: And the GI50 (OVCAR-3)?
Answer: > 100 µM (inactive)

Question: And the GI50 (SK-MEL-5)?
Answer: 55.1 µM (inactive)

Question: What about the GI50 (SK-MEL-28) of the same compound?
Answer: > 100 µM (inactive)

Question: And the GI50 (SF-268)?
Answer: 92.3 µM (inactive)

Question: What about the GI50 (Hs-578T) of the same compound?
Answer: > 100 µM (inactive)

Question: What about the GI50 (U-251) of the same compound?
Answer: > 100 µM (inactive)

Question: What about the GI50 (UO-31) of the same compound?
Answer: > 100 µM (inactive)

Question: And the GI50 (A549)?
Answer: > 100 µM (inactive)

Question: And the GI50 (MCF7)?
Answer: 17.3 µM (inactive)

Question: And the GI50 (PC-3)?
Answer: > 100 µM (inactive)

Question: What about the GI50 (UACC-62) of the same compound?
Answer: 33.1 µM (inactive)

Question: And the GI50 (NCI-H23)?
Answer: > 100 µM (inactive)

Question: What about the GI50 (MDA-N) of the same compound?
Answer: > 100 µM (inactive)

Question: What about the GI50 (KM12) of the same compound?
Answer: > 100 µM (inactive)

Question: And the GI50 (SK-MEL-2)?
Answer: > 100 µM (inactive)

Question: What about the GI50 (SNB-75) of the same compound?
Answer: > 100 µM (inactive)

Question: And the GI50 (MDA-MB-435)?
Answer: > 100 µM (inactive)

Question: What about the GI50 (MOLT-4) of the same compound?
Answer: 71.3 µM (inactive)

Question: What about the GI50 (NCI-H522) of the same compound?
Answer: > 100 µM (inactive)

Question: And the GI50 (NCI-H226)?
Answer: > 100 µM (inactive)

Question: What about the GI50 (RPMI-8226) of the same compound?
Answer: 35.6 µM (inactive)

Question: And the GI50 (EKVX)?
Answer: > 100 µM (inactive)

Question: What about the GI50 (DU-145) of the same compound?
Answer: 81.3 µM (inactive)

Question: And the GI50 (HOP-62)?
Answer: > 100 µM (inactive)

Question: What does the source list for `COC(=O)C1=CC(NC(=O)OCc2ccccc2)C(C(=O)c2ccccc2)C[C@@H]1Sc1ccccc1` (stereo partly drawn)?
Answer: GI50 (SR): < 0.01 µM (active); GI50 (K562): 2.19 µM (inactive); GI50 (CCRF-CEM): 1.47 µM (inactive); GI50 (HL-60): 1.09 µM (active)

Question: For `O=c1c2cc(Br)cc(Br)c2[nH]c(=S)n1-c1ccc(/N=N/c2ccc(O)c3cccnc23)cc1`, which GI50 (SF-295) is on record?
Answer: 64.9 µM (inactive)

Question: And the GI50 (Malme-3M)?
Answer: 18.7 µM (inactive)

Question: And the GI50 (UACC-257)?
Answer: 50.5 µM (inactive)

Question: What about the GI50 (M14) of the same compound?
Answer: 39.7 µM (inactive)

Question: What about the GI50 (T47D) of the same compound?
Answer: 38.2 µM (inactive)

Question: What about the GI50 (IGROV-1) of the same compound?
Answer: 11.2 µM (inactive)

Question: And the GI50 (ACHN)?
Answer: 25.4 µM (inactive)

Question: And the GI50 (SR)?
Answer: 3.61 µM (inactive)

Question: What about the GI50 (SK-OV-3) of the same compound?
Answer: > 100 µM (inactive)

Question: And the GI50 (SNB-19)?
Answer: 19.7 µM (inactive)

Question: What about the GI50 (OVCAR-8) of the same compound?
Answer: 23.3 µM (inactive)

Question: And the GI50 (HOP-92)?
Answer: 18 µM (inactive)

Question: And the GI50 (786-0)?
Answer: 25.7 µM (inactive)

Question: What about the GI50 (LOX IMVI) of the same compound?
Answer: 24.5 µM (inactive)

Question: What about the GI50 (OVCAR-5) of the same compound?
Answer: 74.5 µM (inactive)

Question: What about the GI50 (RXF 393) of the same compound?
Answer: 55.2 µM (inactive)

Question: What about the GI50 (SW-620) of the same compound?
Answer: 29.8 µM (inactive)

Question: What about the GI50 (HT-29) of the same compound?
Answer: 39.6 µM (inactive)

Question: What about the GI50 (SF-539) of the same compound?
Answer: 11.5 µM (inactive)

Question: What about the GI50 (A498) of the same compound?
Answer: > 100 µM (inactive)

Question: What about the GI50 (MDA-MB-231) of the same compound?
Answer: 32.2 µM (inactive)

Question: And the GI50 (TK-10)?
Answer: 66.1 µM (inactive)

Question: What about the GI50 (SN12C) of the same compound?
Answer: 44.5 µM (inactive)

Question: What about the GI50 (COLO 205) of the same compound?
Answer: 32.1 µM (inactive)

Question: And the GI50 (HCT-116)?
Answer: 26.2 µM (inactive)

Question: What about the GI50 (K562) of the same compound?
Answer: 10.7 µM (inactive)

Question: And the GI50 (OVCAR-3)?
Answer: 14 µM (inactive)

Question: What about the GI50 (SK-MEL-5) of the same compound?
Answer: 11.9 µM (inactive)

Question: And the GI50 (CAKI-1)?
Answer: 54.3 µM (inactive)

Question: And the GI50 (SK-MEL-28)?
Answer: 76.9 µM (inactive)

Question: And the GI50 (SF-268)?
Answer: 17.2 µM (inactive)

Question: And the GI50 (Hs-578T)?
Answer: > 100 µM (inactive)

Question: And the GI50 (U-251)?
Answer: 19.7 µM (inactive)

Question: What about the GI50 (UO-31) of the same compound?
Answer: 34.9 µM (inactive)

Question: What about the GI50 (A549) of the same compound?
Answer: 17.8 µM (inactive)

Question: And the GI50 (MCF7)?
Answer: 12.9 µM (inactive)

Question: What about the GI50 (PC-3) of the same compound?
Answer: 39.9 µM (inactive)

Question: And the GI50 (MDA-N)?
Answer: 31.4 µM (inactive)

Question: And the GI50 (KM12)?
Answer: > 100 µM (inactive)

Question: And the GI50 (SK-MEL-2)?
Answer: > 100 µM (inactive)

Question: And the GI50 (HL-60)?
Answer: 38.1 µM (inactive)

Question: And the GI50 (SNB-75)?
Answer: 29.2 µM (inactive)

Question: What about the GI50 (MDA-MB-435) of the same compound?
Answer: 35.4 µM (inactive)

Question: What about the GI50 (MOLT-4) of the same compound?
Answer: 24.8 µM (inactive)

Question: What about the GI50 (NCI-H522) of the same compound?
Answer: 18.7 µM (inactive)

Question: What about the GI50 (NCI-H226) of the same compound?
Answer: > 100 µM (inactive)

Question: What about the GI50 (RPMI-8226) of the same compound?
Answer: 33.9 µM (inactive)

Question: What about the GI50 (EKVX) of the same compound?
Answer: 38.6 µM (inactive)

Question: And the GI50 (OVCAR-4)?
Answer: 57.9 µM (inactive)

Question: And the GI50 (DU-145)?
Answer: 33 µM (inactive)

Question: And the GI50 (HOP-62)?
Answer: 33.3 µM (inactive)
